Results reported in PubChem BioAssay AID1259407 (Chemical Carcinogenesis Research Information System (CCRIS), 2018).
Activity calls are given as the source filed them. How the calls were made is not given here.

Tested on: CCRIS mutagenicity, Ames/micronucleus/aberration tests
Assay: CCRIS mutagenicity studies
[1] = Test System: AMES SALMONELLA TYPHIMURIUM, Strain/Indicator: TA100, Metabolic Activation: NONE, Method: STANDARD PLATE
[2] = Test System: AMES SALMONELLA TYPHIMURIUM, Strain/Indicator: TA98, Metabolic Activation: HAMSTER, LIVER, S-9, AROCLOR 1254 (10%), Method: PREINCUBATION
[3] = Test System: AMES SALMONELLA TYPHIMURIUM, Strain/Indicator: TA98, Metabolic Activation: NONE, Method: PREINCUBATION
[4] = Test System: AMES SALMONELLA TYPHIMURIUM, Strain/Indicator: TA98, Metabolic Activation: RAT, LIVER, S-9, AROCLOR 1254 (10%), Method: PREINCUBATION
[5] = Test System: AMES SALMONELLA TYPHIMURIUM, Strain/Indicator: TA100, Metabolic Activation: HAMSTER, LIVER, S-9, AROCLOR 1254 (10%), Method: PREINCUBATION
[6] = Test System: AMES SALMONELLA TYPHIMURIUM, Strain/Indicator: TA100, Metabolic Activation: NONE, Method: PREINCUBATION
[7] = Test System: AMES SALMONELLA TYPHIMURIUM, Strain/Indicator: TA100, Metabolic Activation: RAT, LIVER, S-9, AROCLOR 1254 (10%), Method: PREINCUBATION
[8] = Test System: AMES SALMONELLA TYPHIMURIUM, Strain/Indicator: TA1535, Metabolic Activation: HAMSTER, LIVER, S-9, AROCLOR 1254 (10%), Method: PREINCUBATION
[9] = Test System: AMES SALMONELLA TYPHIMURIUM, Strain/Indicator: TA1535, Metabolic Activation: NONE, Method: PREINCUBATION
[10] = Test System: AMES SALMONELLA TYPHIMURIUM, Strain/Indicator: TA1535, Metabolic Activation: RAT, LIVER, S-9, AROCLOR 1254 (10%), Method: PREINCUBATION
[11] = Test System: AMES SALMONELLA TYPHIMURIUM, Strain/Indicator: TA1537, Metabolic Activation: HAMSTER, LIVER, S-9, AROCLOR 1254 (10%), Method: PREINCUBATION
[12] = Test System: AMES SALMONELLA TYPHIMURIUM, Strain/Indicator: TA1537, Metabolic Activation: NONE, Method: PREINCUBATION
[13] = Test System: AMES SALMONELLA TYPHIMURIUM, Strain/Indicator: TA1537, Metabolic Activation: RAT, LIVER, S-9, AROCLOR 1254 (10%), Method: PREINCUBATION

C[N+](C)=c1ccc2nc3ccc(N)cc3sc-2c1
mutagenic call (Test System: Ames Salmonella typhimurium, Strain/Indicator: TA98, Metabolic Activation: Rat, Liver, S-9, Aroclor 1254 (10%), Method: Preincubation): active; positive
mutagenic call (Test System: Ames Salmonella typhimurium, Strain/Indicator: TA98, Strain/Sex: TA98, Metabolic Activation: None, Method: Preincubation): active; positive
mutagenic call (Test System: Ames Salmonella typhimurium, Strain/Indicator: TA100, Metabolic Activation: None, Method: Preincubation): active; positive
mutagenic call (Test System: Ames Salmonella typhimurium, Strain/Indicator: TA100, Metabolic Activation: Rat, Liver, S-9, Aroclor 1254 (10%), Method: Preincubation): active; positive
mutagenic call (Test System: E. coli, Strain/Indicator: WPM uvrA/pKM101, Metabolic Activation: None, Method: Preincubation): active; positive
mutagenic call (Test System: E. coli, Strain/Indicator: WPM uvrA/pKM101, Metabolic Activation: Rat, Liver, S-9, Aroclor 1254 (10%), Method: Preincubation): active; positive

CCCCOC(=O)[C@@H](C)Oc1ccc(Oc2ccc(C#N)cc2F)cc1
mutagenic call (End Point: In vitro chromosomal aberrations, Test System: Chinese hamster lung (CHL) cells, Metabolic Activation: None): active; positive (ploidy)
mutagenic call (End Point: In vitro chromosomal aberrations, Test System: Chinese hamster lung (CHL) cells, Metabolic Activation: Rat, liver, S-9, Aroclor 1254): inactive; negative
mutagenic call (End Point: In vivo micronucleus, Test System: Bone marrow polychromatic erythgrocytes, Species: Mouse, Strain/Sex: ICR (Crj:CD-1)/ Female, Route: Oral (Gavage)): inactive; negative
mutagenic call (End Point: In vivo micronucleus, Test System: Bone marrow polychromatic erythgrocytes, Species: Mouse, Strain/Sex: ICR (Crj:CD-1)/ Male, Route: Oral (Gavage)): inactive; negative
mutagenic call (End Point: In vivo micronucleus, Test System: Bone marrow polychromatic erythrocytes, Species: Mouse, Strain/Sex: ICR (Crj:CD-1)/ Female, Route: Oral (Gavage)): inactive; negative
mutagenic call (End Point: In vivo micronucleus, Test System: Bone marrow polychromatic erythrocytes, Species: Mouse, Strain/Sex: ICR (Crj:CD-1)/ Male, Route: Oral (Gavage)): inactive; negative
mutagenic call (Test System: Ames Salmonella typhimurium, Strain/Indicator: TA98, Metabolic Activation: None, Method: Plate incorporation): inactive; negative
mutagenic call (Test System: Ames Salmonella typhimurium, Strain/Indicator: TA98, Metabolic Activation: Rat, liver, S-9, Aroclor-1254, Method: Plate incorporation): inactive; negative
mutagenic call (Test System: Ames Salmonella typhimurium, Strain/Indicator: TA100, Metabolic Activation: None, Method: Plate incorporation): inactive; negative
mutagenic call (Test System: Ames Salmonella typhimurium, Strain/Indicator: TA100, Metabolic Activation: Rat, liver, S-9, Aroclor-1254, Method: Plate incorporation): inactive; negative
mutagenic call (Test System: Ames Salmonella typhimurium, Strain/Indicator: TA1535, Metabolic Activation: None, Method: Plate incorporation): inactive; negative
mutagenic call (Test System: Ames Salmonella typhimurium, Strain/Indicator: TA1535, Metabolic Activation: Rat, liver, S-9, Aroclor-1254, Method: Plate incorporation): inactive; negative
mutagenic call (Test System: Ames Salmonella typhimurium, Strain/Indicator: TA1537, Metabolic Activation: None, Method: Plate incorporation): inactive; negative
mutagenic call (Test System: Ames Salmonella typhimurium, Strain/Indicator: TA1537, Metabolic Activation: Rat, liver, S-9, Aroclor-1254, Method: Plate incorporation): inactive; negative
mutagenic call (Test System: E. coli, Strain/Indicator: WP2 uvrA, Metabolic Activation: None, Method: Standard plate): inactive; negative
mutagenic call (Test System: E. coli, Strain/Indicator: WP2 uvrA, Metabolic Activation: Rat, liver, S-9, Aroclor-1254, Method: Standard plate): inactive; negative
mutagenic call (Test System: Mouse lymphoma, Strain/Indicator: L5178Y cells (TK+/TK-), Metabolic Activation: None, Method: Suspension/plate): inactive; negative
mutagenic call (Test System: Mouse lymphoma, Strain/Indicator: L5178Y cells (TK+/TK-), Metabolic Activation: Rat, liver, S-9, Aroclor-1254, Method: Suspension/plate): inactive; negative

O=[N+]([O-])c1ccc(/C=C/c2cccc(Cl)c2)cc1
mutagenic call (Test System: AMES SALMONELLA TYPHIMURIUM, Strain/Indicator: TA98 (NR), Metabolic Activation: NONE, Method: STANDARD PLATE): active; positive
mutagenic call (Test System: AMES SALMONELLA TYPHIMURIUM, Strain/Indicator: TA98 (NR), Metabolic Activation: S-9, Method: STANDARD PLATE): active; positive
mutagenic call (Test System: AMES SALMONELLA TYPHIMURIUM, Strain/Indicator: TA98, Metabolic Activation: NONE, Method: STANDARD PLATE): active; positive
mutagenic call (Test System: AMES SALMONELLA TYPHIMURIUM, Strain/Indicator: TA98, Metabolic Activation: S-9, Method: STANDARD PLATE): active; positive
mutagenic call (Test System: AMES SALMONELLA TYPHIMURIUM, Strain/Indicator: TA100(NR), Metabolic Activation: NONE, Method: STANDARD PLATE): inactive; negative
mutagenic call (Test System: AMES SALMONELLA TYPHIMURIUM, Strain/Indicator: TA100 (NR), Metabolic Activation: S-9, Method: STANDARD PLATE): active; positive
mutagenic call [1]: active; positive
mutagenic call (Test System: AMES SALMONELLA TYPHIMURIUM, Strain/Indicator: TA100, Metabolic Activation: S-9, Method: STANDARD PLATE): active; positive

C1CCC(C(CC2CCCCN2)C2CCCCC2)CC1 (configuration not stated)
mutagenic call (Test System: AMES SALMONELLA TYPHIMURIUM, Strain/Indicator: TA100(FR1), Metabolic Activation: NONE, Method: STANDARD PLATE): inactive; negative
mutagenic call (Test System: AMES SALMONELLA TYPHIMURIUM, Strain/Indicator: TA100(FR1), Metabolic Activation: RAT, LIVER, S-9, PHENOBARBITAL AND 3-METHYLCHOLANTHRENE, Method: STANDARD PLATE): inactive; negative
mutagenic call [1]: inactive; negative
mutagenic call (Test System: AMES SALMONELLA TYPHIMURIUM, Strain/Indicator: TA100, Metabolic Activation: RAT, LIVER, S-9, PHENOBARBITAL AND 3-METHYLCHOLANTHRENE, Method: STANDARD PLATE): inactive; negative
mutagenic call (Test System: CHINESE HAMSTER V-79, Strain/Indicator: V-79/6-THIOGUANINE, Metabolic Activation: NONE): inactive; negative
mutagenic call (Test System: CHINESE HAMSTER V-79, Strain/Indicator: V-79/6-THIOGUANINE, Metabolic Activation: RAT, LIVER, HEPATOCYTES): active; positive
mutagenic call (Test System: CHINESE HAMSTER V-79, Strain/Indicator: V-79/OUABAIN, Metabolic Activation: NONE): inactive; negative
mutagenic call (Test System: CHINESE HAMSTER V-79, Strain/Indicator: V-79/OUABAIN, Metabolic Activation: RAT, LIVER, HEPATOCYTES): inactive; negative

Cn1c(N)nc2c3cnccc3ccc21
mutagenic call (Test System: AMES SALMONELLA TYPHIMURIUM, Strain/Indicator: TA98, Metabolic Activation: RAT, LIVER, S-9, AROCLOR 1254, Method: STANDARD PLATE): active; positive

CC(C)N
mutagenic call [2]: inactive; negative
mutagenic call [3]: inactive; negative
mutagenic call [4]: inactive; negative
mutagenic call [5]: inactive; negative
mutagenic call [6]: inactive; negative
mutagenic call [7]: inactive; negative
mutagenic call [8]: inactive; negative
mutagenic call [9]: inactive; negative
mutagenic call [10]: inactive; negative
mutagenic call [11]: inactive; negative
mutagenic call [12]: inactive; negative
mutagenic call [13]: inactive; negative
mutagenic call (Test System: UDS RODENT HEPATOCYTES, Strain/Indicator: THY INCORP (NON-S-PHASE), Metabolic Activation: NONE, Method: LIQUID SCINTILLATION COUNTING): inactive; negative

CCC[CH2][Sn]([CH2]CCC)([O]C(C)=O)[O]C(C)=O
mutagenic call [2]: inactive; negative
mutagenic call [3]: inactive; negative
mutagenic call [4]: inactive; negative
mutagenic call [5]: inactive; negative
mutagenic call [6]: inactive; negative
mutagenic call [7]: inactive; negative
mutagenic call [8]: inactive; negative
mutagenic call [9]: inactive; negative
mutagenic call [10]: inactive; negative
mutagenic call [11]: inactive; negative
mutagenic call [12]: inactive; negative
mutagenic call [13]: inactive; negative

Nc1cc(N)c(N=Nc2ccc(S(=O)(=O)O)cc2)cc1N=Nc1ccc(-c2ccc(N=Nc3ccc(C(=O)O)c(O)c3)cc2)cc1
mutagenic call (Test System: AMES SALMONELLA TYPHIMURIUM, Strain/Indicator: TA98, Metabolic Activation: HAMSTER, LIVER, S-9, Method: PREINCUBATION (PRIVAL METHOD)): active; positive
